US20130096119A1, “Isoquinolin-3-Ylurea Derivatives” (priority 2010, published 2013)
Converted amounts (≈) assume the structure as drawn.

Tested on: S. pneumoniae ATCC 49619
Assay: Minimal inhibitory concentration (MIC) by microdilution method (CLSI M7-A7)
Format: cell-based, Streptococcus pneumoniae
Conditions: Streptococcus pneumoniae, ATCC49619, cation-adjusted Mueller-Hinton Broth supplemented with 3% (v/v) lysed horse blood
Summary of the method: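 For S. pneumoniae, cation-adjusted Mueller-Hinton broth carried 3% (v/v) lysed horse blood; MICs (mg/l) were read by CLSI M7-A7 microdilution.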

| SMILES | MIC |
| --- | --- |
| CCNC(=O)Nc1cc2cccc(Nc3cccc(OC)n3)c2cn1 [Example 178, 1-ethyl-3-[8-(6-methoxy-pyridin-2-ylamino)-isoquinolin-3-yl]-urea] | 2 µg/mL (≈ 5.93 µM) |
| CCNC(=O)Nc1cc2cccc(Nc3cccnc3)c2cn1 [Example 145, 1-ethyl-3-[8-(pyridin-3-ylamino)-isoquinolin-3-yl]-urea] | 1 µg/mL (≈ 3.25 µM) |
| CCNC(=O)Nc1cc2cc(-c3ccc(S(N)(=O)=O)cc3)cc(C)c2cn1 [Example 38, 4-[3-(3-ethyl-ureido)-8-methyl-isoquinolin-6-yl]-benzenesulfonamide] | 1 µg/mL (≈ 2.6 µM) |
| CCNC(=O)Nc1cc2c(-c3cccnc3F)ccc(C)c2cn1 [Example 66, 1-ethyl-3-[5-(2-fluoro-pyridin-3-yl)-8-methyl-isoquinolin-3-yl]-urea] | 4 µg/mL (≈ 12.3 µM) |
| CCNC(=O)Nc1cc2c(-c3ccnc(OC)c3)ccc(C)c2cn1 [Example 42, 1-ethyl-3-[5-(2-methoxy-pyridin-4-yl)-8-methyl-isoquinolin-3-yl]-urea] | 2 µg/mL (≈ 5.95 µM) |
| CCNC(=O)Nc1cc2c(-c3ccc(CO)cc3)ccc(Nc3cccnc3)c2cn1 [Example 226, 1-ethyl-3-[5-(4-hydroxymethyl-phenyl)-8-(pyridin-3-ylamino)-isoquinolin-3-yl]-urea] | 1 µg/mL (≈ 2.42 µM) |
| CCNC(=O)Nc1cc2cccc(Nc3cccc(C(=O)OC)n3)c2cn1.Cl [Example 166, 6-[3-(3-ethyl-ureido)-isoquinolin-8-ylamino]-pyridine-2-carboxylic acid methyl ester hydrochloride] | 8 µg/mL |
| CCNC(=O)Nc1cc2cccc(Nc3ccc(C(=O)O)c(C)c3)c2cn1 [Example 267, 4-[3-(3-ethyl-ureido)-isoquinolin-8-ylamino]-2-methyl-benzoic acid] | 2 µg/mL (≈ 5.49 µM) |
| CCNC(=O)Nc1cc2cccc(Nc3cccc(CC(N)=O)c3)c2cn1.Cl [Example 255, 2-{3-[3-(3-ethyl-ureido)-isoquinolin-8-ylamino]-phenyl}-acetamide hydrochloride] | 4 µg/mL |
| CCNC(=O)Nc1cc2c(CNC)ccc(C)c2cn1 [Example 269, 1-ethyl-3-(8-methyl-5-methylaminomethyl-isoquinolin-3-yl)-urea] | 8 µg/mL (≈ 29.4 µM) |
| CCNC(=O)Nc1cc2c(N3CCOCC3)ccc(Nc3cccnc3)c2cn1 [Example 274, 1-ethyl-3-[5-morpholin-4-yl-8-(pyridin-3-ylamino)-isoquinolin-3-yl]-urea] | 2 µg/mL (≈ 5.1 µM) |
| CCNC(=O)Nc1cc2c(F)c(-c3cccnc3)cc(-c3cccnc3)c2cn1 [Example 53, 1-ethyl-3-(5-fluoro-6,8-di-pyridin-3-yl-isoquinolin-3-yl)-urea] | 8 µg/mL (≈ 20.6 µM) |
| CCNC(=O)Nc1cc2c(-c3ccc(CO)cc3)ccc(Oc3cccnc3)c2cn1 [Example 221, 1-ethyl-3-[5-(4-hydroxymethyl-phenyl)-8-(pyridin-3-yloxy)-isoquinolin-3-yl]-urea] | 0.5 µg/mL (≈ 1.21 µM) |
| CCNC(=O)Nc1cc2cccc(Nc3ccc(CC(=O)O)cc3)c2cn1 [Example 205, {4-[3-(3-ethyl-ureido)-isoquinolin-8-ylamino]phenyl}-acetic acid] | 4 µg/mL (≈ 11 µM) |
| CCNC(=O)Nc1cc2cccc(Nc3ccc(C(N)=O)cc3)c2cn1.Cl [Example 252, 4-[3-(3-ethyl-ureido)-isoquinolin-8-ylamino]-benzamide hydrochloride] | 2 µg/mL |
| CCNC(=O)Nc1cc2c(F)ccc(-c3cccnc3)c2cn1 [Example 215, 1-ethyl-3-(5-fluoro-8-pyridin-3-yl-isoquinolin-3-yl)-urea] | 16 µg/mL (≈ 51.6 µM) |
| CCNC(=O)Nc1cc2c(-c3ccncc3)ccc(Nc3cccc(OC)n3)c2cn1 [Example 217, 1-ethyl-3-[8-(6-methoxy-pyridin-2-ylamino)-5-pyridin-4-yl-isoquinolin-3-yl]-urea] | 0.5 µg/mL (≈ 1.21 µM) |
| CCNC(=O)Nc1cc2cc(-c3ccccc3C(=O)OCC)cc(C)c2cn1 [Example 85, 2-[3-(3-ethyl-ureido)-8-methyl-isoquinolin-6-yl]-benzoic acid ethyl ester] | 16 µg/mL (≈ 42.4 µM) |
| CCNC(=O)Nc1cc2cccc(Nc3ccc(NC(C)=O)nc3)c2cn1.Cl [Example 161, N-{5-[3-(3-ethyl-ureido)-isoquinolin-8-ylamino]-pyridin-2-yl}-acetamide hydrochloride] | 2 µg/mL |
| CCNC(=O)Nc1cc2c(F)ccc(C)c2cn1 [Example 60, 1-ethyl-3-(5-fluoro-8-methyl-isoquinolin-3-yl)-urea] | 4 µg/mL (≈ 16.2 µM) |
| CCNC(=O)Nc1cc2cc(NCc3cccc(C(=O)O)c3)cc(C)c2cn1.Cl [Example 128, 3-{[3-(3-ethyl-ureido)-8-methyl-isoquinolin-6-ylamino]-methyl}-benzoic acid hydrochloride] | 8 µg/mL |
| CCNC(=O)Nc1cc2cc(NCc3cccc(C(=O)OC)c3)cc(C)c2cn1 [Example 126, 3-{[3-(3-ethyl-ureido)-8-methyl-isoquinolin-6-ylamino]-methyl}-benzoic acid methyl ester] | 8 µg/mL (≈ 20.4 µM) |
| CCNC(=O)Nc1cc2cccc(Nc3ccc(C(=O)OC)c(C)c3)c2cn1 [Example 266, 4-[3-(3-ethyl-ureido)-isoquinolin-8-ylamino]-2-methyl-benzoic acid methyl ester] | 4 µg/mL (≈ 10.6 µM) |

| SMILES | MIC |
| --- | --- |
| CCNC(=O)Nc1cc2cc(-c3ccc(CO)cc3)cc(C)c2cn1 [Example 15, 1-ethyl-3-[6-(4-hydroxymethyl-phenyl)-8-methyl-isoquinolin-3-yl]-urea] | 0.5 µg/mL (≈ 1.49 µM) |
| CCNC(=O)Nc1cc2cc(-c3cccc(CN)c3)cc(C)c2cn1 [Example 26, 1-[6-(3-(aminomethyl)-phenyl)-8-methyl-isoquinolin-3-yl]-3-ethyl-urea] | 0.5 µg/mL (≈ 1.5 µM) |
| CCNC(=O)Nc1cc2cc(NCc3ccc(OC)nc3)cc(C)c2cn1.Cl [Example 196, 1-ethyl-3-{6-[(6-methoxy-pyridin-3-ylmethyl)-amino]-8-methyl-isoquinolin-3-yl}-urea hydrochloride] | 8 µg/mL |
| CCNC(=O)Nc1cc2cccc(CNc3cccnc3)c2cn1 [Example 190, 1-ethyl-3-[8-(pyridin-3-ylaminomethyl)-isoquinolin-3-yl]-urea] | 1 µg/mL (≈ 3.11 µM) |
| CCNC(=O)Nc1cc2cc(-c3cccc4[nH]ccc34)cc(C)c2cn1 [Example 90, 1-ethyl-3-[6-(1H-indol-4-yl)-8-methyl-isoquinolin-3-yl]-urea] | 2 µg/mL (≈ 5.81 µM) |
| CCNC(=O)Nc1cc2cccc(Nc3ccc(O)cc3)c2cn1 [Example 175, 1-ethyl-3-[8-(4-hydroxy-phenylamino)-isoquinolin-3-yl]-urea] | 16 µg/mL (≈ 49.6 µM) |
| CCNC(=O)Nc1cc2cc(NCc3ccc4cn[nH]c4c3)cc(C)c2cn1 [Example 184, 1-ethyl-3-{6-[(1H-indazol-6-ylmethyl)-amino]-8-methyl-isoquinolin-3-yl}-urea] | 4 µg/mL (≈ 10.7 µM) |
| CCNC(=O)Nc1cc2c(F)ccc(Br)c2cn1 [Example 32, 1-(8-bromo-5-fluoro-isoquinolin-3-yl)-3-ethyl-urea] | 16 µg/mL (≈ 51.3 µM) |
| CCNC(=O)Nc1cc2cccc(CNc3ccc(OC)nc3)c2cn1.Cl [Example 302, 1-ethyl-3-{8-[(6-methoxy-pyridin-3-ylamino)-methyl]-isoquinolin-3-yl}-urea hydrochloride] | 8 µg/mL |
| CCNC(=O)Nc1cc2cccc(Nc3cccc(CC(=O)N(C)C)c3)c2cn1.Cl [Example 211, 2-{3-[3-(3-ethyl-ureido)-isoquinolin-8-ylamino]phenyl}-N,N-dimethyl-acetamide hydrochloride] | 4 µg/mL |
| CCNC(=O)Nc1cc2cccc(Nc3ccc(C)c(C(=O)O)c3)c2cn1 [Example 265, 5-[3-(3-ethyl-ureido)-isoquinolin-8-ylamino]-2-methyl-benzoic acid] | 1 µg/mL (≈ 2.74 µM) |
| CCNC(=O)Nc1cc2cc(-c3cccc(S(N)(=O)=O)c3)cc(C)c2cn1 [Example 22, 3-[3-(3-ethyl-ureido)-8-methyl-isoquinolin-6-yl]-benzenesulfonamide] | 0.5 µg/mL (≈ 1.3 µM) |
| CCNC(=O)Nc1cc2cccc(COc3cccc(N)c3)c2cn1.Cl [Example 260, 1-[8-(3-amino-phenoxymethyl)-isoquinolin-3-yl]-3-ethyl-urea hydrochloride] | 8 µg/mL |
| CCNC(=O)Nc1cc2c(-c3cccc(CN)c3)ccc(Nc3cccnc3)c2cn1 [Example 232, 1-(5-(3-(aminomethyl)phenyl)-8-(pyridin-3-ylamino)isoquinolin-3-yl)-3-ethylurea] | 2 µg/mL (≈ 4.85 µM) |
| CCNC(=O)Nc1cc2cc(NCc3ccncc3)cc(C)c2cn1.Cl [Example 122, 1-ethyl-3-{8-methyl-6-[(pyridin-4-ylmethyl)-amino]-isoquinolin-3-yl}-urea hydrochloride] | 8 µg/mL |
| CCNC(=O)Nc1cc2cccc(COc3ccccc3C(=O)OC)c2cn1.Cl [Example 258, 2-[3-(3-ethyl-ureido)-isoquinolin-8-ylmethoxy]-benzoic acid methyl ester hydrochloride] | 8 µg/mL |
| CCNC(=O)Nc1cc2cccc(Nc3ccc(CC(=O)NCc4ccccc4)cc3)c2cn1.Cl [Example 208, N-benzyl-2-{4-[3-(3-ethyl-ureido)-isoquinolin-8-ylamino]-phenyl}-acetamide hydrochloride] | 8 µg/mL |
| CCNC(=O)Nc1cc2c(-c3ccncc3)ccc(C)c2cn1 [Example 61, 1-ethyl-3-(8-methyl-5-pyridin-4-yl-isoquinolin-3-yl)-urea] | 1 µg/mL (≈ 3.26 µM) |
| CCNC(=O)Nc1cc2cc(-c3ccc(S(C)(=O)=O)cc3)cc(C)c2cn1 [Example 94, 1-ethyl-3-[6-(4-methanesulfonyl-phenyl)-8-methyl-isoquinolin-3-yl]-urea] | 0.25 µg/mL (≈ 0.652 µM) |
| CCNC(=O)Nc1cc2c(Nc3cccnc3)ccc(Nc3cccnc3)c2cn1 [Example 268, 1-[5,8-bis-(pyridin-3-ylamino)-isoquinolin-3-yl]-3-ethyl-urea] | 4 µg/mL (≈ 10 µM) |
| CCNC(=O)Nc1cc2c(CNC)ccc(Nc3cccnc3)c2cn1 [Example 270, 1-ethyl-3-{5-[(methylamino)methyl]-8-(pyridin-3-ylamino)-isoquinolin-3-yl}-urea] | 4 µg/mL (≈ 11.4 µM) |
| CCNC(=O)Nc1cc2cc(-c3cccnc3)cc(C)c2cn1 [Example 16, 1-ethyl-3-(8-methyl-6-pyridin-3-yl-isoquinolin-3-yl)-urea] | 2 µg/mL (≈ 6.53 µM) |
